Earlier results as cited in patent US5874549A, “Acid-cleavable compound” (NeoRx Corporation, priority 1993, dated 1999).

Details: relative to Cpd 1 = 1

Relative Rate (hydrolysis of the amide group) | SMILES
42.7 | CN(C)C(=O)/C=C\C(=O)O [Cpd 14]
31.2 | CNC(=O)/C=C(/C)C(=O)O [Cpd 2]
0.72 | CNC(=O)c1ccccc1C(=O)O [Cpd 10]
44.5 | CNC(=O)/C=C(\C(=O)O)C(C)C [Cpd 4]
4.2 × 10^-5 | CNC(=O)C1=C(C(=O)O)CCC1 [Cpd 8]
1 | CNC(=O)/C=C\C(=O)O [Cpd 1]
4.2 × 10^-6 | CNC(=O)C1=C(C(=O)O)CC1 [Cpd 9]
32.8 | CC/C(=C/C(=O)NC)C(=O)O [Cpd 3]
540 | CNC(=O)C1=C(C(=O)O)CCCC1 [Cpd 7]
68.0 | CNC(=O)/C=C(\C(=O)O)C(C)(C)C [Cpd 5]
2.6 | CC(C)(C)NC(=O)/C=C\C(=O)O [Cpd 12]
4.5 | O=C(O)/C=C\C(=O)Nc1ccccc1 [Cpd 13]
0.7 | CC(C)NC(=O)/C=C\C(=O)O [Cpd 11]
2.35 × 10^4 | CCCNC(=O)/C(C)=C(/C)C(=O)O [Cpd 6]

SMILES | Relative Rate (hydrolysis of the amide group)
C=CC(=O)NC [N-methyl acrylamide] | ~1.4 × 10^-7
